Legend:
Type in all cases: functional
Bacillus subtilis = assay: Antibacterial activity against Bacillus subtilis incubated for 12 hrs by broth microdilution method
Staphylococcus aureus = assay: Antibacterial activity against Staphylococcus aureus 8325 incubated for 12 hrs by broth microdilution method
Pseudomonas aeruginosa = assay: Antibacterial activity against Pseudomonas aeruginosa PAO1 incubated for 12 hrs by broth microdilution method
Candida albicans = assay: Antifungal activity against Candida albicans IBT 656 incubated for 24 hrs by broth microdilution method

Measured: MIC

CC[C@H]1/C=C/[C@@H]([C@@H](C)O)OC(=O)/C(C)=C\CC(=O)Nc2cc(O)cc3c2O[C@@]2(CC1)CC(=O)[C@@H](C)[C@@H]3O2
> 50 µg/mL: all assays above

CC[C@@H](/C=C/[C@H](OC(=O)/C(C)=C\[C@@H]1C(=O)NC2=CC(=O)c3cc(O)c(C)cc3[C@]21O)[C@H](C)O)CCC(=O)O
> 50 µg/mL: all assays above

CC[C@@H](/C=C/[C@H](OC(=O)/C(C)=C\C1=C2C(=CC(=O)c3cc(O)c(C)cc32)NC1=O)[C@H](C)O)CCC(=O)O
> 50 µg/mL: all assays above

CC[C@@H](/C=C/[C@H](O)[C@H](C)OC(=O)/C(C)=C\C1=C2C(=CC(=O)c3cc(O)c(C)cc32)NC1=O)CCC(=O)O
> 50 µg/mL: all assays above

CC[C@H]1/C=C/[C@H](O)[C@@H](C)OC(=O)/C(C)=C\CC(=O)Nc2cc(O)cc3c2O[C@@]2(CC1)CC(=O)[C@H](C)[C@H]3O2
> 50 µg/mL: all assays above

CC[C@@H](/C=C/[C@H](O)[C@H](C)OC(=O)/C(C)=C\[C@@H]1C(=O)NC2=CC(=O)c3cc(O)c(C)cc3[C@]21O)CCC(=O)O
> 50 µg/mL: all assays above

CC[C@@H](/C=C/[C@H](OC(=O)/C(C)=C\[C@H]1C(=O)NC2=CC(=O)c3cc(O)c(C)cc3[C@@]21O)[C@H](C)O)CCC(=O)O
> 50 µg/mL: all assays above
